Reference: PubChem BioAssay AID2060599 (Molecular Pharmacology Branch, DTP, NCI, 2025)

Test system: 817829-284-R-J1-PDC complex spheroids, viability
Test: Anticancer human tumor 817829-284-R-J1-PDC patient-derived colon adenocarcinoma cell line growth inhibition [CLK]
Details: second compound 0.0316 µM; first compound 3.16 µM; hits give low values
Text: A high-throughput screen of multi-cell type tumor spheroids was designed to identify active combinations of […] and targeted small molecules. Complex spheroids include a stromal component modeled by human endothelial cells (HUVEC) and fibroblasts modeled by human mesenchymal stem cells (MSCs). The concentration ranges selected for each drug and investigational agent were based upon clinically achievable concentrations if the clinical Cmax of the agent was known.
Compounds. The drugs and investigational agents: cirtuvivint (SM08502; NSC835563), CC-671 (NSC850746), vemurafenib (NSC761431), tapotoclax (NSC804041), sotorasib (NSC818433), adagrasib (NSC831453), MRTX-1133 (NSC836407), BAY2416964 (NSC825713), copanlisib (NSC816437), inavolisib (NSC800729), abemaciclib (NSC768073), osimertinib (NSC779217), entinostat (NSC756642), eltanexor (KPT-8602, NSC794443), venetoclax (NSC766270), ceralasertib (NSC777638), bortezomib (NSC756655), olaparib (NSC753686), talazoparib (NSC767125), alisertib (NSC759677), peposertib (NSC802822), gemcitabine (NSC613327), 5-fluorouracil (NSC19893), SN-38 (NSC673596), oxaliplatin (NSC266046), paclitaxel (NSC125973), and doxorubicin (NSC123127), were obtained from the National Cancer Institute (NCI) Developmental Therapeutics Program Chemical Repository. The FDA-approved anticancer drug set is available from the Developmental Therapeutics Program at https://dtp.cancer.gov/organization/dscb/obtaining/available plates.htm. […] The stock solutions were prepared in dimethyl sulfoxide (DMSO, Sigma-Aldrich, St. Louis, MO, cat. D2650), except for the platinum complexes which were prepared in saline (Quality Biological, Gaithersburg, MD, cat. 114-055-101), at 800-fold the tested concentration and stored at -70 degrees C prior to their use. All drugs and investigational agents were tested over a range starting from a high concentration at or near the clinical Cmax and decreasing in half-log increments. If the clinical Cmax for an agent had not been determined, the highest concentration tested was 10 microM.
Cell Culture. All cells were maintained in an incubator at 37 degrees C and 5% CO2 with 95% humidity. The PDC lines were cultured according to standard operating procedures established by the NCI PDMR. Briefly, all PDCs were thawed and cultured in Matrigel-coated flasks prepared with a working solution of 1X Ham's F-12 nutrient mix, without supplementation (Invitrogen, Waltham, MA, cat. 11765054), 100 U/mL penicillin-streptomycin (Invitrogen, cat. 15140122), and 2.5% Matrigel (Corning Inc., Corning, NY, cat. 354248) for the first three passages. The 947758-054-R-J2-PDC line was cultured in 6B/Colon 1A media, which includes advanced DMEM/F-12 (Thermo Fisher Scientific, cat. 12634028), 10 mM HEPES (Thermo Fisher Scientific, cat. 15630080), 1X GlutaMAX supplement (Thermo Fisher Scientific, cat. 35050061), 0.1 mg/mL primocin (InvivoGen, cat. ant-pm-2), 10% defined fetal bovine serum, heat inactivated (HyClone Laboratories Inc., cat. SH30070.03HI), 1.25 mM N-Acetyl-L-cysteine (Sigma-Aldrich, cat. A9165), 10 mM nicotinamide (Sigma-Aldrich, cat. N0636), 1X B-27 supplement (Thermo Fisher Scientific, cat. 17504044), 1X N-2 supplement (Thermo Fisher Scientific, cat. 17502048), and 10 microM Y-27632 dihydrochloride (Tocris Bioscience, cat. 1254). The 876862-298-R-J1-PDC was cultured in 6E media, which includes all 6B/Colon 1A media components plus 50% L-WRN conditioned media (ATCC, cat. CRL-3276), 50 ng/mL recombinant human EGF recombinant protein (hEGF; Thermo Fisher Scientific, cat. PHG0311), 10 ng/mL recombinant human fibroblast growth factor 10 (hGFG-10; PeproTech, cat. 100-26), 1 ng/mL recombinant human fibroblast growth factor 2 (hFGF-2; PeproTech, cat. 100-18B), and 1 µM prostaglandin E2 (PGE2; Tocris, cat. 2296). The 227483-062-R1-J1-PDC line was cultured in Panc media, containing all 6E components except hFGF-2, with the addition of 500 nM SB-431542 (Selleckchem, cat. S1067) and 10 nM gastrin (Tocris, cat. 3006). […]
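Further: spheroids exposed to the agents for seven days before readout.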

| SMILES | viability, T/C |
| --- | --- |
| C=CC(=O)N1CCN(c2nc(=O)n(-c3c(C)ccnc3C(C)C)c3nc(-c4c(O)cccc4F)c(F)cc23)C(C)C1 (configuration not stated) + CN1CCN(c2cc(C(=O)Nc3cc4cc(-c5cnn(C)c5)ccc4cn3)ccn2)CC1 | 49.6% |
| COC1C=CCC(C)C(C)S(=O)(=O)NC(=O)c2ccc3c(c2)N(CC2CCC21)CC1(CCCc2cc(Cl)ccc21)CO3 (configuration not stated) + CN1CCN(c2cc(C(=O)Nc3cc4cc(-c5cnn(C)c5)ccc4cn3)ccn2)CC1 | 28.2% |

Same assay, conditions: second compound 0.0316 µM; first compound 10 µM; hits give low values

| SMILES | viability, T/C |
| --- | --- |
| C=C(F)C(=O)N1CCN(c2nc(OCC3CCCN3C)nc3c2CCN(c2cccc4cccc(Cl)c24)C3)CC1CC#N (configuration not stated) + CN1CCN(c2cc(C(=O)Nc3cc4cc(-c5cnn(C)c5)ccc4cn3)ccn2)CC1 | 0.06% |
| C=CC(=O)N1CCN(c2nc(=O)n(-c3c(C)ccnc3C(C)C)c3nc(-c4c(O)cccc4F)c(F)cc23)C(C)C1 (configuration not stated) + CN1CCN(c2cc(C(=O)Nc3cc4cc(-c5cnn(C)c5)ccc4cn3)ccn2)CC1 | 32.2% |
| COC1C=CCC(C)C(C)S(=O)(=O)NC(=O)c2ccc3c(c2)N(CC2CCC21)CC1(CCCc2cc(Cl)ccc21)CO3 (configuration not stated) + CN1CCN(c2cc(C(=O)Nc3cc4cc(-c5cnn(C)c5)ccc4cn3)ccn2)CC1 | 7.26% |

Same assay, conditions: second compound 0.1 µM; first compound 0.0316 µM; hits give low values

| SMILES | viability, T/C |
| --- | --- |
| C=C(F)C(=O)N1CCN(c2nc(OCC3CCCN3C)nc3c2CCN(c2cccc4cccc(Cl)c24)C3)CC1CC#N (configuration not stated) + CN1CCN(c2cc(C(=O)Nc3cc4cc(-c5cnn(C)c5)ccc4cn3)ccn2)CC1 | 24.5% |
| C=CC(=O)N1CCN(c2nc(=O)n(-c3c(C)ccnc3C(C)C)c3nc(-c4c(O)cccc4F)c(F)cc23)C(C)C1 (configuration not stated) + CN1CCN(c2cc(C(=O)Nc3cc4cc(-c5cnn(C)c5)ccc4cn3)ccn2)CC1 | 24.9% |
| COC1C=CCC(C)C(C)S(=O)(=O)NC(=O)c2ccc3c(c2)N(CC2CCC21)CC1(CCCc2cc(Cl)ccc21)CO3 (configuration not stated) + CN1CCN(c2cc(C(=O)Nc3cc4cc(-c5cnn(C)c5)ccc4cn3)ccn2)CC1 | 21.4% |

Same assay, conditions: second compound 0.1 µM; first compound 0.1 µM; hits give low values

| SMILES | viability, T/C |
| --- | --- |
| C=C(F)C(=O)N1CCN(c2nc(OCC3CCCN3C)nc3c2CCN(c2cccc4cccc(Cl)c24)C3)CC1CC#N (configuration not stated) + CN1CCN(c2cc(C(=O)Nc3cc4cc(-c5cnn(C)c5)ccc4cn3)ccn2)CC1 | 29.8% |
| C=CC(=O)N1CCN(c2nc(=O)n(-c3c(C)ccnc3C(C)C)c3nc(-c4c(O)cccc4F)c(F)cc23)C(C)C1 (configuration not stated) + CN1CCN(c2cc(C(=O)Nc3cc4cc(-c5cnn(C)c5)ccc4cn3)ccn2)CC1 | 25.4% |
| COC1C=CCC(C)C(C)S(=O)(=O)NC(=O)c2ccc3c(c2)N(CC2CCC21)CC1(CCCc2cc(Cl)ccc21)CO3 (configuration not stated) + CN1CCN(c2cc(C(=O)Nc3cc4cc(-c5cnn(C)c5)ccc4cn3)ccn2)CC1 | 18.1% |

Same assay, conditions: second compound 0.1 µM; first compound 0.316 µM; hits give low values

| SMILES | viability, T/C |
| --- | --- |
| C=C(F)C(=O)N1CCN(c2nc(OCC3CCCN3C)nc3c2CCN(c2cccc4cccc(Cl)c24)C3)CC1CC#N (configuration not stated) + CN1CCN(c2cc(C(=O)Nc3cc4cc(-c5cnn(C)c5)ccc4cn3)ccn2)CC1 | 16.7% |
| C=CC(=O)N1CCN(c2nc(=O)n(-c3c(C)ccnc3C(C)C)c3nc(-c4c(O)cccc4F)c(F)cc23)C(C)C1 (configuration not stated) + CN1CCN(c2cc(C(=O)Nc3cc4cc(-c5cnn(C)c5)ccc4cn3)ccn2)CC1 | 22.4% |
| COC1C=CCC(C)C(C)S(=O)(=O)NC(=O)c2ccc3c(c2)N(CC2CCC21)CC1(CCCc2cc(Cl)ccc21)CO3 (configuration not stated) + CN1CCN(c2cc(C(=O)Nc3cc4cc(-c5cnn(C)c5)ccc4cn3)ccn2)CC1 | 16.3% |

Same assay, conditions: second compound 0.1 µM; first compound 1 µM; hits give low values

| SMILES | viability, T/C |
| --- | --- |
| C=C(F)C(=O)N1CCN(c2nc(OCC3CCCN3C)nc3c2CCN(c2cccc4cccc(Cl)c24)C3)CC1CC#N (configuration not stated) + CN1CCN(c2cc(C(=O)Nc3cc4cc(-c5cnn(C)c5)ccc4cn3)ccn2)CC1 | 22.5% |
| C=CC(=O)N1CCN(c2nc(=O)n(-c3c(C)ccnc3C(C)C)c3nc(-c4c(O)cccc4F)c(F)cc23)C(C)C1 (configuration not stated) + CN1CCN(c2cc(C(=O)Nc3cc4cc(-c5cnn(C)c5)ccc4cn3)ccn2)CC1 | 22.8% |
| COC1C=CCC(C)C(C)S(=O)(=O)NC(=O)c2ccc3c(c2)N(CC2CCC21)CC1(CCCc2cc(Cl)ccc21)CO3 (configuration not stated) + CN1CCN(c2cc(C(=O)Nc3cc4cc(-c5cnn(C)c5)ccc4cn3)ccn2)CC1 | 12.3% |

Same assay, conditions: second compound 0.1 µM; first compound 3.16 µM; hits give low values

| SMILES | viability, T/C |
| --- | --- |
| C=C(F)C(=O)N1CCN(c2nc(OCC3CCCN3C)nc3c2CCN(c2cccc4cccc(Cl)c24)C3)CC1CC#N (configuration not stated) + CN1CCN(c2cc(C(=O)Nc3cc4cc(-c5cnn(C)c5)ccc4cn3)ccn2)CC1 | 9.48% |
| C=CC(=O)N1CCN(c2nc(=O)n(-c3c(C)ccnc3C(C)C)c3nc(-c4c(O)cccc4F)c(F)cc23)C(C)C1 (configuration not stated) + CN1CCN(c2cc(C(=O)Nc3cc4cc(-c5cnn(C)c5)ccc4cn3)ccn2)CC1 | 16.1% |
| COC1C=CCC(C)C(C)S(=O)(=O)NC(=O)c2ccc3c(c2)N(CC2CCC21)CC1(CCCc2cc(Cl)ccc21)CO3 (configuration not stated) + CN1CCN(c2cc(C(=O)Nc3cc4cc(-c5cnn(C)c5)ccc4cn3)ccn2)CC1 | 5.31% |

Same assay, conditions: second compound 0.1 µM; first compound 10 µM; hits give low values

| SMILES | viability, T/C |
| --- | --- |
| C=C(F)C(=O)N1CCN(c2nc(OCC3CCCN3C)nc3c2CCN(c2cccc4cccc(Cl)c24)C3)CC1CC#N (configuration not stated) + CN1CCN(c2cc(C(=O)Nc3cc4cc(-c5cnn(C)c5)ccc4cn3)ccn2)CC1 | 0.04% |
| C=CC(=O)N1CCN(c2nc(=O)n(-c3c(C)ccnc3C(C)C)c3nc(-c4c(O)cccc4F)c(F)cc23)C(C)C1 (configuration not stated) + CN1CCN(c2cc(C(=O)Nc3cc4cc(-c5cnn(C)c5)ccc4cn3)ccn2)CC1 | 10.7% |
| COC1C=CCC(C)C(C)S(=O)(=O)NC(=O)c2ccc3c(c2)N(CC2CCC21)CC1(CCCc2cc(Cl)ccc21)CO3 (configuration not stated) + CN1CCN(c2cc(C(=O)Nc3cc4cc(-c5cnn(C)c5)ccc4cn3)ccn2)CC1 | 2.6% |

Same assay, conditions: second compound 0.316 µM; first compound 0.0316 µM; hits give low values

| SMILES | viability, T/C |
| --- | --- |
| C=C(F)C(=O)N1CCN(c2nc(OCC3CCCN3C)nc3c2CCN(c2cccc4cccc(Cl)c24)C3)CC1CC#N (configuration not stated) + CN1CCN(c2cc(C(=O)Nc3cc4cc(-c5cnn(C)c5)ccc4cn3)ccn2)CC1 | 2.04% |
| C=CC(=O)N1CCN(c2nc(=O)n(-c3c(C)ccnc3C(C)C)c3nc(-c4c(O)cccc4F)c(F)cc23)C(C)C1 (configuration not stated) + CN1CCN(c2cc(C(=O)Nc3cc4cc(-c5cnn(C)c5)ccc4cn3)ccn2)CC1 | 2.69% |
| COC1C=CCC(C)C(C)S(=O)(=O)NC(=O)c2ccc3c(c2)N(CC2CCC21)CC1(CCCc2cc(Cl)ccc21)CO3 (configuration not stated) + CN1CCN(c2cc(C(=O)Nc3cc4cc(-c5cnn(C)c5)ccc4cn3)ccn2)CC1 | 1.91% |

Same assay, conditions: second compound 0.316 µM; first compound 0.1 µM; hits give low values

| SMILES | viability, T/C |
| --- | --- |
| C=C(F)C(=O)N1CCN(c2nc(OCC3CCCN3C)nc3c2CCN(c2cccc4cccc(Cl)c24)C3)CC1CC#N (configuration not stated) + CN1CCN(c2cc(C(=O)Nc3cc4cc(-c5cnn(C)c5)ccc4cn3)ccn2)CC1 | 2.26% |
| C=CC(=O)N1CCN(c2nc(=O)n(-c3c(C)ccnc3C(C)C)c3nc(-c4c(O)cccc4F)c(F)cc23)C(C)C1 (configuration not stated) + CN1CCN(c2cc(C(=O)Nc3cc4cc(-c5cnn(C)c5)ccc4cn3)ccn2)CC1 | 2.73% |
| COC1C=CCC(C)C(C)S(=O)(=O)NC(=O)c2ccc3c(c2)N(CC2CCC21)CC1(CCCc2cc(Cl)ccc21)CO3 (configuration not stated) + CN1CCN(c2cc(C(=O)Nc3cc4cc(-c5cnn(C)c5)ccc4cn3)ccn2)CC1 | 1.47% |

Same assay, conditions: second compound 0.316 µM; first compound 0.316 µM; hits give low values

| SMILES | viability, T/C |
| --- | --- |
| C=C(F)C(=O)N1CCN(c2nc(OCC3CCCN3C)nc3c2CCN(c2cccc4cccc(Cl)c24)C3)CC1CC#N (configuration not stated) + CN1CCN(c2cc(C(=O)Nc3cc4cc(-c5cnn(C)c5)ccc4cn3)ccn2)CC1 | 2.74% |
| C=CC(=O)N1CCN(c2nc(=O)n(-c3c(C)ccnc3C(C)C)c3nc(-c4c(O)cccc4F)c(F)cc23)C(C)C1 (configuration not stated) + CN1CCN(c2cc(C(=O)Nc3cc4cc(-c5cnn(C)c5)ccc4cn3)ccn2)CC1 | 3% |
| COC1C=CCC(C)C(C)S(=O)(=O)NC(=O)c2ccc3c(c2)N(CC2CCC21)CC1(CCCc2cc(Cl)ccc21)CO3 (configuration not stated) + CN1CCN(c2cc(C(=O)Nc3cc4cc(-c5cnn(C)c5)ccc4cn3)ccn2)CC1 | 1.45% |
